Legend:
Human LDL = assay: Antioxidant effect: inhibition of copper-induced oxidation of human LDL (fluorescence); format: biochemical; conditions: human LDL 120 μg/ml + CuCl2, 37° C., fluorescence difference between 2 h and 24 h readings; from three concentrations
Protocol: Human LDLs placed in aqueous solution in the presence of cupric ions, become spontaneously oxidized on their protein component, apolipoprotein-B. This oxidation makes the particle fluorescent, which is exploited to measure a pharmacological effect.
The reactions and measurements are performed in black 96-well plates. 10 μl of a solution of the test product dissolved in dimethyl sulfoxide are first mixed with 170 μl of a solution of human LDL at a concentration of 120 μg/ml and 20 μl of 100 μM CuCl2. After stirring, the mixture is incubated for 2 hours at 37° C., and a first fluorescence reading is taken (excitation at 360 nm, reading at 460 nm). The mixture is then incubated for a further 22 hours, to take a second reading under the same conditions. The difference is proportionately smaller the greater the anti-oxidant power of the test product. Probucol is used as reference product at a concentration of 10 μM.
The concentrations that inhibit 50% (IC50) of the oxidation are prepared from three concentrations of the test product. They are given in Table I below for some of the compounds given as examples below.

fatty Zucker rats = assay: Hypotriglyceridaemiant activity in fatty Zucker rats; format: in vivo, rat; conditions: 9-week-old male Zucker rats, 300 mg/kg/day p.o. for eight days, plasma after fasting four hours
Protocol: The compound of Example 2 was tested on fatty Zucker rats (Zucker L. M. et al., 1961, Fatty a new mutation in the rat, J. Hered., 52: 275278). This animal is hyperphagic, obese and hyperinsulinaemic. It develops resistance to insulin, it is hyperlipidaemic, and has a large hypertriglyceridaemia. 9-week-old male Zucker rats were treated for eight days with this compound at a dose of 300 mg/kg/day p.o. After fasting for four hours, a blood sample is taken to recover the plasma. Under these conditions, the compound of Example 2 induces a large reduction in triglycerides, of 55% (p<0.01), and the insulinaemia is down by 59% (p<0.05).

Compound | IC50 (Human LDL) [µM] | reduction in triglycerides (fatty Zucker rats; p<0.01) [%] | insulinaemia down by (fatty Zucker rats; p<0.05) [%]
COc1ccc(Nc2ccc(C(=O)O)cc2)cc1 [Example 2, 4-[(4-Methoxyphenyl)amino]benzoic acid] | 10.6 | 55 | 59
COc1ccc(Nc2ccc(C#N)cc2)cc1 [Example 6, 4-[(4-Methoxyphenyl)amino]benzonitrile] | 8.5 |  | 
COc1ccc(Nc2ccc(CO)cc2)cc1 [Example 8, {4-[(4-Methoxyphenyl)amino]phenyl}methanol] | 5.8 |  | 
O=C(O)c1ccc(Nc2ccc([N+](=O)[O-])cc2)cc1 [Example 13] | 9.7 |  | 
COc1ccc(Nc2ccc(CC(=O)O)cc2)cc1 [Example 17] | 11.1 |  | 
COc1ccc(Nc2ccc(C(N)=O)cc2)cc1 [Example 42] | 18.6 |  | 

Source: patent US20070129433A1, “Diphenylamine derivatives” (priority 2003, published 2007)
